Assay results: patent publication US20170188607A1, “SOLUBILIZATION OF A SWEET MODULATOR AND FLAVOR” (Firmenich SA, priority 2014, published 2017)

Experiment: Crystallization onset of supersaturated solution stirred at 20° C., followed in a Crystalline PV device with CCD cameras
Type: physicochemical
Method: (§1) A concentrated solution 2 of (S)-1-(3-(((4-amino-2,2-dioxido-1H-benzo[c][1,2,6]thiadiazin-5-yl)oxy)methyl)piperidin-1-yl)-3-methylbutan-1-one at 1% (w/w) (10000 ppm) was prepared in water. The pH was adjusted to 11 using NaOH to form the (S)-1-(3-(((4-amino-2,2-dioxido-1H-benzo[c][1,2,6]thiadiazin-5-yl)oxy)methyl)piperidin-1-yl)-3-methylbutan-1-one sodium salt, and a homogeneous solution was obtained. Next, a syrup was prepared by mixing an aqueous solution of HFCS, citric acid and deionized water. […] of 100 ppm of (S)-1-(3-(((4-amino-2,2-dioxido-1H-benzo[c][1,2,6]thiadiazin-5-yl)oxy)methyl)piperidin-1-yl)-3-methylbutan-1-one, i.e. about 15 times above the intrinsic solubility of the compound at 20° C. The sample was stirred at 20° C. and crystallization was followed in a Crystalline PV device equipped with CCD cameras. Crystallization started after about 530 minutes.
as §1, with “acid, HydroxyPropyl Cellulose (HPC) 100k” for “acid”, “deionized water. The final syrup contained 43% fructose, 1% citric acid, 0.05% HPC and 55.95%” for “deionized”, “cameras.” for “cameras. Crystallization started after about 530 minutes.”
A concentrated solution 2 of (S)-1-(3-(((4-amino-2,2-dioxido-1H-benzo[c][1,2,6]thiadiazin-5-yl)oxy)methyl)piperidin-1-yl)-3-methylbutan-1-one at 1% (w/w) (10000 ppm) was prepared in water. The pH was adjusted to 11 using NaOH to form the (S)-1-(3-(((4-amino-2,2-dioxido-1H-benzo[c][1,2,6]thiadiazin-5-yl)oxy)methyl)piperidin-1-yl)-3-methylbutan-1-one sodium salt, and a homogeneous solution was obtained. Next, a citric acid buffer solution was prepared by mixing 50 mM citric acid in deionised water (pH=2.8). An aliquot of solution 2 was diluted 100 times with the buffer solution to yield a final concentration of 100 ppm of (S)-1-(3-(((4-amino-2,2-dioxido-1H-benzo[c][1,2,6]thiadiazin-5-yl)oxy)methyl)piperidin-1-yl)-3-methylbutan-1-one, i.e. about 15 times above the intrinsic solubility of the compound at 20° C. The sample was stirred at 20° C. and crystallization was followed in a Crystalline PV device equipped with CCD cameras.
A concentrated solution 2 of (S)-1-(3-(((4-amino-2,2-dioxido-1H-benzo[c][1,2,6]thiadiazin-5-yl)oxy)methyl)piperidin-1-yl)-3-methylbutan-1-one at 1% (w/w) (10000 ppm) was prepared in water. The pH was adjusted to 11 using NaOH to form the (S)-1-(3-(((4-amino-2,2-dioxido-1H-benzo[c][1,2,6]thiadiazin-5-yl)oxy)methyl)piperidin-1-yl)-3-methylbutan-1-one sodium salt, and a homogeneous solution was obtained. Next, a citric acid buffer solution was prepared by mixing 50 mM citric acid and carboxymethyl cellulose (CMC) in deionised water (pH=2.8). The final water solution contained 50 mM citric acid and 0.05% CMC. […]

SMILES: CC(C)CC(=O)N1CCC[C@H](COc2cccc3c2C(N)=NS(=O)(=O)N3)C1 [(S)-1-(3-(((4-amino-2,2-dioxido-1H-benzo[c][1,2,6]thiadiazin-5-yl)oxy)methyl)piperidin-1-yl)-3-methylbutan-1-one]
- time until crystallization started (Example 5 (comparative): 100 ppm, syrup 43 Brix (43% fructose, 1% citric acid), no polymer): about 530 minutes
- time until first crystals were observed (Example 6: 100 ppm, syrup 43 Brix with 0.05% HPC 100k): about 3520 minutes
- time until first crystals were observed (Example 7 (comparative): 100 ppm, 50 mM citric acid buffer pH 2.8, no polymer): about 166 minutes
- time until first crystals were observed (Example 8: 100 ppm, 50 mM citric acid buffer pH 2.8 with 0.05% CMC): about 466 minutes
- crystallization observation (Example 9: 100 ppm, syrup 43 Brix with 0.05% HPMC 100k): No crystallization was observed after seven days
